Assay results from patent EP3714904B1, “IMINODIACETIC ACID SUBSTITUTED CYCLODEXTRINS AS POTENTIATORS OF BETA-LACTAM ANTIBIOTICS” (NATIONAL CENTER FOR SCIENTIFIC RESEARCH "DEMOKRITOS" (NCSRD), priority 2019, dated 2020).

Tests used:
Klebsiella pneumoniae = test: MIC of β-lactams alone or with 50 µM IDACYD against clinical isolates; type: cell-based
Method: Further the in-vitro inhibitory activity of IDACYDs was tested against highly resistant pathogens. […] Table 2: Collection of clinical isolates used for in-vitro evaluation

[1] = test system: NDM producing K. pneumoniae clinical strain LA26; test: Murine sepsis model: 2-hour intervals treatment scheme; type: in vivo, CD-1 mice; settings: 30 mg/kg meropenem + 20 mg/kg β-IDACYD every 2 h for 24 h
Method: Example 7. […] The animals were rendered neutropenic (<100 neutrophils/mm^3) by intraperitoneal injection of 150 and 100 mg/kg of cyclophosphamide at day -4 and day -1, respectively, before infection. […] The meropenem/ β-IDACYD combination was administrated in all dosing schemes simultaneously. […] Blood samples were taken 0, 6, 24 hours and 7 days after injection of a single dose of antibiotic (five infected animals for each timepoint) were serially diluted in normal saline (10^-1 to 10^-9) and plated on MH agar plates which were incubated for 16 hours at 37°C for determination of viable organisms. All mice that were alive were euthanised 7 days post infection and spleen and liver were harvested. The organs were placed into 1 mL of normal saline on ice and then homogenised. The organ homogenates were then serially diluted in normal saline (10^-1 to 10^-9) and plated on MH agar for CFU enumeration. Without therapy 90% of mice succumbed to the infection within 24 hours. […] Finally, the bacterial load in the spleen was relieved by 4.2 log10 compared to that of the antibiotic itself. In Fig.6 is shown the bacterial load (CFU/mL) (A) and survival percentage (B) of CD-1 mice infected with a lethal dose (10^7 CFU) of NDM-1 producing K. pneumoniae strain LA26. […] Treatment (initiated at 2 hours post infection) was given every 2h for a 24h period and blood was drawn 0 h, 6 h, 24 h and 140 h post treatment initiation. All groups were of n=10. Spleen and liver (C) from n=5 mice were also removed at 140 h post-treatment initiation the bacterial load [log (CFU/organ)] was determined. Error bars are indicative of SEM (n=2 replicates).

[2] = target: T1, MBL containing crude enzyme preparation (Kpn LA-26 NDM-1) (Klebsiella pneumoniae, UniProt C7C422); test: 1H NMR monitoring of meropenem hydrolysis by MBL crude enzyme preparation; type: biochemical; settings: meropenem 0.18 mM, β-IDACYD 1.9 mM, over a 12 h period
T1 construct: an MBL containing crude enzyme preparation (Kpn LA-26 NDM-1, 485 µL); endogenous in cells; host or cells: Klebsiella pneumoniae clinical strain LA-26 (crude enzyme preparation)

Serratia marcescens = test: MIC of β-lactams alone or with 50 µM IDACYD against clinical isolates; type: cell-based; settings: isolate EUG-815 (VIM, CMY)
Method: (§1) Further the in-vitro inhibitory activity of IDACYDs was tested against highly resistant pathogens. Tables 3, 4 and 5 show the effect of IDACYDs using a collection of 36 highly resistant Gram negative strains (Table 2, Kirby-Bauer disc diffusion method) producing NDM, VIM and IMP type MBLs as well as 6 isolates expressing serine beta-lactamases (ESBLs, AmpCs). […] Clinical isolates co-expressing ESBLs and/or AmpC β-lactamases along with MBLs where re-sensitized to both imipenem and meropenem, as expected. Table 2: Collection of clinical isolates used for in-vitro evaluation

Providencia stuartii = test: as above; type: cell-based
Method: as §1

Escherichia coli = test: as above; type: cell-based
Method: as §1

Enterobacter gergoviae = test: as above; type: cell-based
Method: as §1

Proteus mirabilis = test: as above; type: cell-based
Method: as §1

Acinetobacter baumannii = test: as above; type: cell-based
Method: as §1

[3] = isolate LAR-7547 (NDM, VIM, CTXM)
[4] = isolate TZAN-59 (β-lactamase: None)

T1 sequence (C7C422 29-270 limits assumed): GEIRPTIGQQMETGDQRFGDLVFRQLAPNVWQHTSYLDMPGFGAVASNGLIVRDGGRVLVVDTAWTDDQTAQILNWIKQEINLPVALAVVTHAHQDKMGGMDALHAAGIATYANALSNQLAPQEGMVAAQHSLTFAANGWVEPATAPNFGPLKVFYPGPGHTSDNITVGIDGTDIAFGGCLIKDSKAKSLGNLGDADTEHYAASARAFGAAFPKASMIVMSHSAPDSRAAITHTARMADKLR

SMILES: CO[C@@H]1[C@@H](OC)[C@H]2O[C@H]3[C@H](OC)[C@@H](OC)[C@@H](O[C@H]4[C@H](OC)[C@@H](OC)[C@@H](O[C@H]5[C@H](OC)[C@@H](OC)[C@@H](O[C@H]6[C@H](OC)[C@@H](OC)[C@@H](O[C@H]7[C@H](OC)[C@@H](OC)[C@@H](O[C@H]8[C@H](OC)[C@@H](OC)[C@@H](O[C@@H]1[C@@H](CN(CC(=O)O)CC(=O)O)O2)O[C@@H]8CN(CC(=O)O)CC(=O)O)O[C@@H]7CN(CC(=O)O)CC(=O)O)O[C@@H]6CN(CC(=O)O)CC(=O)O)O[C@@H]5CN(CC(=O)O)CC(=O)O)O[C@@H]4CN(CC(=O)O)CC(=O)O)O[C@@H]3CN(CC(=O)O)CC(=O)O [β-IDACYD]
- Meropenem /50µM β-IDACYD MIC (Klebsiella pneumoniae; isolate LAR-2873 (VIM-12)): <0.25 µg/mL
- Ceftazidime/ 50µM β-IDACYD MIC (Klebsiella pneumoniae; isolate LAR-4011/15): 32 µg/mL
- Imipenem /50µM β-IDACYD MIC (Klebsiella pneumoniae; [3]): 4 µg/mL
- Meropenem /50µM β-IDACYD MIC (Klebsiella pneumoniae; [3]): 16 µg/mL
- Imipenem /50µM β-IDACYD MIC (Klebsiella pneumoniae; isolate SEC-2 (VIM)): 2 µg/mL
- Meropenem /50µM β-IDACYD MIC (Klebsiella pneumoniae; isolate SEC-2 (VIM)): 2 µg/mL
- Imipenem /50µM β-IDACYD MIC (Klebsiella pneumoniae; isolate SEC-4 (VIM)): 2 µg/mL
- Meropenem /50µM β-IDACYD MIC (Klebsiella pneumoniae; isolate SEC-4 (VIM)): 1 µg/mL
- Imipenem /50µM β-IDACYD MIC (Klebsiella pneumoniae; [4]): 0.5 µg/mL
- Meropenem /50µM β-IDACYD MIC (Klebsiella pneumoniae; [4]): 0.5 µg/mL
- Ceftazidime/ 50µM β-IDACYD MIC (Klebsiella pneumoniae; isolate UoA 12/227 (VIM)): <0.25 µg/mL
- Imipenem /50µM β-IDACYD MIC (Klebsiella pneumoniae; isolate UoA 12/227 (VIM)): <0.125 µg/mL
- Meropenem /50µM β-IDACYD MIC (Klebsiella pneumoniae; isolate UoA 12/227 (VIM)): <0.25 µg/mL
- Ceftazidime/ 50µM β-IDACYD MIC (Klebsiella pneumoniae; isolate UoA 1995 (VIM)): <0.25 µg/mL
- Imipenem /50µM β-IDACYD MIC (Klebsiella pneumoniae; isolate UoA 1995 (VIM)): <0.125 µg/mL
- Meropenem /50µM β-IDACYD MIC (Klebsiella pneumoniae; isolate UoA 1995 (VIM)): <0.25 µg/mL
- mice protected (survival) ([1]; intraperitoneal, 140 hours): 90%
- reduction of the bacterial load in the spleen compared to the antibiotic itself ([1]; 140 h): 4.2 log10
- reduction of the bacterial load in blood compared to meropenem monotherapy ([1]; 140 hours post treatment initiation): 4.0 log10
- hydrolysis of meropenem in the presence of β-IDACYD [2]: no signals of hydrolysis of the drug could be observed
- Ceftazidime/ 50µM β-IDACYD MIC (Serratia marcescens): <0.25 µg/mL
- Imipenem /50µM β-IDACYD MIC (Serratia marcescens): <0.125 µg/mL
- Meropenem /50µM β-IDACYD MIC (Serratia marcescens): <0.25 µg/mL
- Ceftazidime/ 50µM β-IDACYD MIC (Providencia stuartii; isolate ALX- 21 (VIM, VEB)): 16 µg/mL
- Imipenem /50µM β-IDACYD MIC (Providencia stuartii; isolate ALX- 21 (VIM, VEB)): 0.25 µg/mL
- Meropenem /50µM β-IDACYD MIC (Providencia stuartii; isolate ALX- 21 (VIM, VEB)): <0.25 µg/mL
- Imipenem /50µM β-IDACYD MIC (Providencia stuartii; isolate ALX-27 (VIM)): <0.125 µg/mL
- Meropenem /50µM β-IDACYD MIC (Providencia stuartii; isolate ALX-27 (VIM)): <0.25 µg/mL
- Ceftazidime/ 50µM β-IDACYD MIC (Providencia stuartii; isolate ESDY-4559 (VIM)): <0.25 µg/mL
- Imipenem /50µM β-IDACYD MIC (Providencia stuartii; isolate ESDY-4559 (VIM)): <0.125 µg/mL
- Meropenem /50µM β-IDACYD MIC (Providencia stuartii; isolate ESDY-4559 (VIM)): <0.25 µg/mL
- Imipenem /50µM β-IDACYD MIC (Providencia stuartii; isolate ESDY-4563 (VIM, VEB)): <0.125 µg/mL
- Meropenem /50µM β-IDACYD MIC (Providencia stuartii; isolate ESDY-4563 (VIM, VEB)): <0.25 µg/mL
- Ceftazidime/ 50µM β-IDACYD MIC (Escherichia coli; isolate TZAN-116 (VIM)): <0.25 µg/mL
- Imipenem /50µM β-IDACYD MIC (Escherichia coli; isolate TZAN-116 (VIM)): <0.125 µg/mL
- Meropenem /50µM β-IDACYD MIC (Escherichia coli; isolate TZAN-116 (VIM)): <0.25 µg/mL
- Imipenem /50µM β-IDACYD MIC (Escherichia coli; isolate TZAN-541 (VIM)): <0.125 µg/mL
- Meropenem /50µM β-IDACYD MIC (Escherichia coli; isolate TZAN-541 (VIM)): <0.25 µg/mL
- Imipenem /50µM β-IDACYD MIC (Enterobacter gergoviae; isolate AK-5227 (VIM, CMY)): 1 µg/mL
- Meropenem /50µM β-IDACYD MIC (Enterobacter gergoviae; isolate AK-5227 (VIM, CMY)): <0.25 µg/mL
- Imipenem /50µM β-IDACYD MIC (Enterobacter gergoviae; isolate AK-5240 (VIM, CMY)): <0.125 µg/mL
- Meropenem /50µM β-IDACYD MIC (Enterobacter gergoviae; isolate AK-5240 (VIM, CMY)): <0.25 µg/mL
- Imipenem /50µM β-IDACYD MIC (Proteus mirabilis; isolate ALX-13 (VIM, VEB)): 1 µg/mL
- Meropenem /50µM β-IDACYD MIC (Proteus mirabilis; isolate ALX-13 (VIM, VEB)): 0.5 µg/mL
- Imipenem /50µM β-IDACYD MIC (Proteus mirabilis; isolate ESDY-17 (VIM, CMY)): <0.125 µg/mL
- Meropenem /50µM β-IDACYD MIC (Proteus mirabilis; isolate ESDY-17 (VIM, CMY)): <0.25 µg/mL
- Ceftazidime/ 50µM β-IDACYD MIC (Proteus mirabilis; isolate ESDY-15184 (VIM, CMY)): <0.25 µg/mL
- Imipenem /50µM β-IDACYD MIC (Proteus mirabilis; isolate ESDY-15184 (VIM, CMY)): 0.125 µg/mL
- Meropenem /50µM β-IDACYD MIC (Proteus mirabilis; isolate ESDY-15184 (VIM, CMY)): <0.25 µg/mL
- Imipenem /50µM β-IDACYD MIC (Proteus mirabilis; isolate ESDY-15315 (VIM, CMY)): <0.125 µg/mL
- Meropenem /50µM β-IDACYD MIC (Proteus mirabilis; isolate ESDY-15315 (VIM, CMY)): <0.25 µg/mL
- Imipenem /50µM β-IDACYD MIC (Acinetobacter baumannii; isolate TZAN-40 (VIM, OXA-58)): 0.25 µg/mL
- Meropenem /50µM β-IDACYD MIC (Acinetobacter baumannii; isolate TZAN-40 (VIM, OXA-58)): 2 µg/mL
- Imipenem /50µM β-IDACYD MIC (Acinetobacter baumannii; isolate TZAN-42 (VIM, OXA-58)): 2 µg/mL
- Meropenem /50µM β-IDACYD MIC (Acinetobacter baumannii; isolate TZAN-42 (VIM, OXA-58)): 8 µg/mL
